Experiment: xn = mol fraction of the nth substance listed

NCC(O)CO (stereo unspecified) + CC[n+]1ccn(C)c1.[Cl-]
101 kPa, x2 = 0.667
Details	viscosity [mPa·s]
298.15 K	321
303.15 K	230
313.15 K	125.5
323.15 K	70.2
333.15 K	44.6

CCCC[N+](CCCC)(CCCC)CCCC.[Cl-] + CNCCO
101.3 kPa
Details	viscosity [mPa·s]
293.15 K, x1 = 0.09104	29.5
298.15 K, x1 = 0.09104	22.9
298.15 K, x1 = 0.111	26.1
303.15 K, x1 = 0.1441	27
308.15 K, x1 = 0.1441	21.1
313.15 K, x1 = 0.1441	17.1
318.15 K, x1 = 0.09104	11.4
328.15 K, x1 = 0.111	7.84

CC[n+]1ccn(C)c1C.F[B-](F)(F)F + CO
101.3 kPa
Details	viscosity [mPa·s]
293.15 K, x1 = 0.1313	1.92
298.15 K, x1 = 0.09153	1.35
298.15 K, x1 = 0.2607	3.98
303.15 K, x1 = 0.03641	0.859
303.15 K, x1 = 0.1313	1.64
308.15 K, x1 = 0.06083	1.022
308.15 K, x1 = 0.09153	1.167
308.15 K, x1 = 0.1313	1.51
313.15 K, x1 = 0.1848	1.92
318.15 K, x1 = 0.3768	5.52
323.15 K, x1 = 0.03641	0.664
323.15 K, x1 = 0.09153	0.947
323.15 K, x1 = 0.1313	1.21
328.15 K, x1 = 0.09153	0.874
328.15 K, x1 = 0.1313	1.132
328.15 K, x1 = 0.3768	4.55
333.15 K, x1 = 0.1313	1.065
333.15 K, x1 = 0.1848	1.41

C[N+](C)(C)CCO.NCC(=O)[O-] + CO
viscosity [mPa·s], 100 kPa
Details	x1 = 0.1002	x1 = 0.2001	x1 = 0.2997	x1 = 0.4004	x1 = 0.4994	x1 = 0.6	x1 = 0.6997	x1 = 0.8001	x1 = 0.9	x1 = 1
298.15 K	2.3	6.55	15.49	34.55	64.1	108.4	170.2	260	369	501
303.15 K	2.08	5.72	13.06	28.31	50.8	84	128.3	193.9	269	363
308.15 K	1.89	5.03	11.1	23.47	40.9	66.3	99.9	146.7	201	264
313.15 K	1.73	4.47	9.55	19.74	33.58	53.4	78.9	111.5	153.5	201
318.15 K	1.58	3.98	8.28	16.74	27.95	45.2	62.8	89.7	118.8	154.5
323.15 K	1.46	3.57	7.27	14.32	23.49	37.8	51.2	71.9	94.3	121.1
